The text below walks through data of paper PMC11048244, “Development of Improved Spectrophotometric Assays for Biocatalytic Silyl Ether Hydrolysis” (Biomolecules, 2024).

Each structure is given as a SMILES string.

The test system of the test is T1, TF-Silα-Strep (silicatein-α, Silα).
T1 construct: trigger factor fused at N-terminus, Strep-tag II at C-terminus; recombinant, StrepTrap purified
Briefly: UV-VIS spectrophotometric silyl ether hydrolysis, net initial rates. In kind it is biochemical. The conditions noted are these: 10% v/v 1,4-dioxane, 50 mM Tris, 100 mM NaCl, pH 8.5. An excerpt: UV-VIS spectrophotometric silyl ether hydrolysis, net initial rates on TF-Silα-Strep (silicatein-α, Silα)
For the molecule `CC(C)(C)[Si](C)(C)Oc1ccc([N+](=O)[O-])cc1` [compound 1, tert-butyldimethyl(4-nitrophenoxy)silane], the Km (as a rule, the concentration of substrate that gives half-maximal velocity) is 44.4 ± 11.9 µM.

As for `CC(C)C(C)(C)[Si](C)(C)Oc1ccc([N+](=O)[O-])cc1` [compound 2, 2], the Km is 24.1 ± 5 µM.

Take `CC(C)[Si](Oc1ccc([N+](=O)[O-])cc1)(C(C)C)C(C)C` [compound 3, 3]: the Km is 20.4 ± 8.13 µM.

As for `Cc1cc([N+](=O)[O-])ccc1O[Si](C)(C)C(C)(C)C` [compound 4, tert-Butyldimethyl(2-methyl-4-nitrophenoxy)silane], the Km was 72.5 ± 15.3 µM.

Turning to `Cc1cc(O[Si](C)(C)C(C)(C)C)ccc1[N+](=O)[O-]` [compound 5, tert-Butyldimethyl(3-methyl-4-nitrophenoxy)silane], the Km is 34.6 ± 4.11 µM.
